Source: patent US20170127675A1, “COMPOSITIONS AND METHODS FOR CONTROLLING INSECT POPULATIONS” (OLFACTOR LABORATORIES, INC., priority 2014, published 2017)
Where a name gives a salt, the structure may show the parent alone.

Test system: mosquitoes
Test: Attractive toxic sugar assay
Type: in vivo
Details: after three days, dead / total mosquitoes
Procedure: Experiments were carried out to examine the lethality of compounds of the present invention using an attractive toxic sugar assay. These experiments were carried out in 6 groups according to Table 3. […] The experimental room was conditioned with 75% humidity or higher. Experimental cages were prepared by adding paper towels to the cage bottoms. Cages of mosquitoes were collected (about 25 males and about 25 females per cage), one cage for each sugar bait being tested with an extra cage to use as a sucrose-only control. […] Feeding cups were prepared with 10 ml of experimental sugar bait to a cup. In some experiments, blue food coloring was added to verify sugar consumption in the frass. Bait cups were mixed by gentle swirling and wicks were added through the top. Control bait cups received about 10 ml of prepared 10% sucrose solution (except where otherwise indicated). Heat, humidity as well as humidifier water content were checked each day. Cages were examined daily for dead mosquitoes. The number of dead mosquitoes per gender was recorded each day. Frass content was examined daily and compared with that of sucrose control. After three days, final observations were made and live mosquitoes were removed from each experimental cage and placed into cups for examination under the dissecting scope to determine whether or not female mosquitoes had fed. Once feeding females had been determined for populations from each cage, cups were frozen and discarded. Dead mosquitoes in each cage were counted and the sex of each determined. The relative frass content per cage was compared to that of the sucrose control cage. […] Percent (%) lethality was calculated for each treatment group by dividing the total (male and female) number of dead mosquitoes by the total number of mosquitoes for each.

[1] = sugar conc. 0.10%, about 25 male and 25 female mosquitoes per cage

Molecule	% Lethality [1]	% Lethality (sugar conc. 0.50%)
O.O.O.O.O.OC[C@H]1O[C@H](OC[C@H]2O[C@H](O[C@]3(CO)O[C@H](CO)[C@@H](O)[C@@H]3O)[C@H](O)[C@@H](O)[C@@H]2O)[C@H](O)[C@@H](O)[C@H]1O [D-(+)-raffinose pentahydrate]	38.8%	
O=C(CO)[C@@H](O[C@H]1O[C@H](CO)[C@@H](O)[C@H](O)[C@H]1O)[C@H](O)[C@H](O)CO [D-(+)-turanose]	66%	29%
OC[C@H]1O[C@@H](O[C@H]2O[C@H](CO)[C@@H](O)[C@H](O)[C@H]2O)[C@H](O)[C@@H](O)[C@@H]1O [alpha,beta-trehalose]	56.2%	
CC1(C)[C@@H](O[C@H]2O[C@H](C(=O)O)[C@@H](O)[C@H](O)[C@H]2O[C@@H]2O[C@H](C(=O)O)[C@@H](O)[C@H](O)[C@H]2O)CC[C@]2(C)[C@H]3C(=O)C=C4[C@@H]5C[C@@](C)(C(=O)O)CC[C@]5(C)CC[C@@]4(C)[C@]3(C)CC[C@@H]12 [glycyrrhizic acid ammonium salt]	68.3%	
OC[C@H]1O[C@H](OCC2O[C@@H](O)[C@H](O)[C@@H](O)[C@@H]2O)[C@H](O)[C@@H](O)[C@H]1O (stereo partly drawn) [melibiose]	64.4%	
CO[C@@H]1O[C@H](CO)[C@H](O)[C@H](O)[C@H]1O [methyl-beta-D-galactopyranoside]	65.9%	43%
C[C@@H]1O[C@@H](OC[C@H]2O[C@@H](Oc3c(-c4ccc(O)c(O)c4)oc4cc(O)cc(O)c4c3=O)[C@H](O)[C@@H](O)[C@@H]2O)[C@H](O)[C@H](O)[C@H]1O [rutin hydrate]	58%	45%
n-acetyl allolactosamine	44%	
sucrose octasulfate aluminum complex	39.6%	
